Data: US6242611A, “Phenylimidazolidines containing nitrooxy or carbonyloxy groups” (Hoechst Marion Roussel, priority 1995, dated 2001)

Legend:
Androgen Receptor = molecular target: T1, Androgen Receptor (Rattus norvegicus, UniProt P15207); experiment: Affinity for the androgen receptor (relative bond affinity, tritiated testosterone displacement, rat prostate cytosol); type: binding, Male Sprague Dawley EOPS rats
T1 construct: the prostates are removed, weighed and homogenized at 0° C; from tissue; host or cells: prostate cytosol of castrated male Sprague Dawley rats
T1 sequence (P15207 1-902): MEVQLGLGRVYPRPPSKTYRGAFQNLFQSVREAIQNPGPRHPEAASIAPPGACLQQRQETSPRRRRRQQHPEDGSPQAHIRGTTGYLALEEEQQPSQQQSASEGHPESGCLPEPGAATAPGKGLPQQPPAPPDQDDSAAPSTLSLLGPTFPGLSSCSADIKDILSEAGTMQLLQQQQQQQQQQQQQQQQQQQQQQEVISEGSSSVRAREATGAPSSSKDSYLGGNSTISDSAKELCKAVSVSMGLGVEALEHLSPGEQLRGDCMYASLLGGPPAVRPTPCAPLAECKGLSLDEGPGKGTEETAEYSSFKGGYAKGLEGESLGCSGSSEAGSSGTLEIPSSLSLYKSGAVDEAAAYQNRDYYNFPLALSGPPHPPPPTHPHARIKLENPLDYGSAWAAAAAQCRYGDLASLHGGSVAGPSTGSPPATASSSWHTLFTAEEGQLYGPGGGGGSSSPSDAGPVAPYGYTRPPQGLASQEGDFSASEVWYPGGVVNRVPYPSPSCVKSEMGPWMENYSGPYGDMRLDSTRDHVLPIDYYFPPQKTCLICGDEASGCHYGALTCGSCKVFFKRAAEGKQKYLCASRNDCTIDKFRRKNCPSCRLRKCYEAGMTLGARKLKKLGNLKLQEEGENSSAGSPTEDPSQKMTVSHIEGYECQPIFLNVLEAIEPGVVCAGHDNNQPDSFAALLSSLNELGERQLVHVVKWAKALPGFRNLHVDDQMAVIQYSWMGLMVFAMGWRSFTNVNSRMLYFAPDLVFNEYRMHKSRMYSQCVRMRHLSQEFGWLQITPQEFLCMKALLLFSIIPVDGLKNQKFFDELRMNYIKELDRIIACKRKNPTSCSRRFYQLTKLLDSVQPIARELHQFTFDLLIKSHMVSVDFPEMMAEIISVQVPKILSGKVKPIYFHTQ
Description: The homogenate is then ultracentrifuged at 0° C., for 30 minutes at 209,000 g.

[1] = tested on: Prostate in an Intact Male Rat; experiment: Reducing effect in the weight of the prostate in an intact male rat (systemic antiandrogen activity); type: in vivo, male rats of the Sprague Dawley strain; conditions: day 0 to day 4 then day 7 to day 10, intact male rats, compared to animals treated with solvent only
Description: The experiment is carried out over two weeks, except for the weekend.
The product can be administered by oral, sub-cutaneous or percutaneous route.
The treatment is carried out from day 0 to day 4 then (after the weekend) from day 7 to day 10. The animals are sacrificed the day after the last treatment by bleeding the carotid artery, the prostates are removed and fixed in demineralized water containing 10% formol for 72 hours. They are then dissected and weighed.

[2] = tested on: Costo-vertebral Gland of the Hamster; experiment: Reducing effect on the costo-vertebral gland of the hamster (local topical antiandrogen activity); type: in vivo, male hamsters (Charles River breed); conditions: 3 weeks (14 administrations), surface area of C.V.G., male hamsters, compared to animals treated with solvent only
Description: The local activity (topical) of an antiandrogen is determined by the reduction which it produces in the surface area of the costovertebral gland of the hamster (hereafter C.V.G.), an androgen-dependent organ situated on the sides of the animal.
The animals are male hamsters weighing approximately 140 g, 14 weeks old and originating from the Charles Riverbreed (USA), they are subjected to a long photoperiod (16 hours of light, 8 hours of darkness). The animals are treated every day, except for the weekend, for 3 weeks (14 administrations). The product to be tested is applied, by topical route, to the right-hand G.C.V., the left-hand one serving as the control, the surface of the gland having been shaved beforehand. The animals are sacrificed by bleeding the carotid artery 24 hours after the last treatment. The C.V.G.'s are removed, measured and weighed. The local activity of a product is determined by the % reduction in the surface area of the C.V.G. which it induces in comparison with the 1st of day the experiment and compared to the animals treated with solvent only.

CC(C)OC(=O)OCCCCN1C(=O)N(c2ccc(C#N)c(C(F)(F)F)c2)C(=O)C1(C)C [Example 1, 4-(3-(4-cyano-3-(trifluoromethyl)-phenyl)-5,5-dimethyl-2,4-dioxo-1-imidazolidinyl)butyl and 1-methylethyl carbonate]
RBA: Incubation for 24 hours (Androgen Receptor): 19 | % reduction in the prostate weight with 3 mg/kg P.O. [1]: -5% | % CVG reduction with 3 μg/jour [2]: -32%
